Patent publication US8530388B2, “Cyclopentadione derived herbicides” (Syngenta Limited, priority 2009, dated 2013)

What was measured:
Type in all cases: in vivo
Avena fatua (AVEFA) [1] = assay: Pre-emergence herbicidal activity, glasshouse pot test; conditions: 312 h, Rate 250 g/ha, sprayed one day after sowing, evaluated after 13 days, 100=total damage to plant, 0=no damage to plant
Method: (§1) Seeds of a variety of test species were sown in standard soil in pots. After cultivation for one day (pre-emergence) or after 8 days cultivation (post-emergence) under controlled conditions in a glasshouse (at 24/16° C., day/night; 14 hours light; 65% humidity), the plants were sprayed with an aqueous spray solution derived from the formulation of the technical active ingredient in acetone/water (50:50) solution containing 0.5% Tween 20 (polyoxyethelyene sorbitan monolaurate, CAS RN 9005-64-5). The test plants were then grown in a glasshouse under controlled conditions in a glasshouse (at 24/16° C., day/night; 14 hours light; 65% humidity) and watered twice daily. After 13 days for pre and post-emergence, the test was evaluated (100=total damage to plant; 0=no damage to plant). Test plants: Setaria faberi (SETFA), Lolium perenne (LOLPE), Alopecurus myosuroides (ALOMY), Echinochloa crus-galli (ECHCG), and Avena fatua (AVEFA) Pre-Emergence Activity

[2] = system: Alopecurus myosuroides (ALOMY); assay: as above; conditions: 312 h, Rate 250 g/ha, sprayed one day after sowing, evaluated after 13 days, 100=total damage to plant, 0=no damage to plant
Method: as §1

[3] = system: Echinochloa crus-galli (ECHCG); assay: as above; conditions: 312 h, Rate 250 g/ha, sprayed one day after sowing, evaluated after 13 days, 100=total damage to plant, 0=no damage to plant
Method: as §1

Lolium perenne (LOLPE) [4] = assay: as above; conditions: 312 h, Rate 250 g/ha, sprayed one day after sowing, evaluated after 13 days, 100=total damage to plant, 0=no damage to plant
Method: as §1

Avena fatua (AVEFA) [5] = assay: Post-emergence herbicidal activity, glasshouse pot test; conditions: 312 h, rate 250 g/ha, evaluated after 13 days, read-out: Post-emergence activity, AVEFA (100=total damage to plant; 0=no damage to plant)
Method: as §1, with “plant).” for “plant). Test plants: Setaria faberi (SETFA), Lolium perenne (LOLPE), Alopecurus myosuroides (ALOMY), Echinochloa crus-galli (ECHCG), and Avena fatua (AVEFA) Pre-Emergence Activity”
(§2) Test plants: Setaria faberi (SETFA), Lolium perenne (LOLPE), Alopecurus myosuroides (ALOMY), Echinochloa crus-galli (ECHCG), and Avena fatua (AVEFA)

[6] = system: Alopecurus myosuroides (ALOMY); assay: as above; conditions: 312 h, rate 250 g/ha, evaluated after 13 days, read-out: Post-emergence activity, ALOMY (100=total damage to plant; 0=no damage to plant)
Method: as §1, with “plant).” for “plant). Test plants: Setaria faberi (SETFA), Lolium perenne (LOLPE), Alopecurus myosuroides (ALOMY), Echinochloa crus-galli (ECHCG), and Avena fatua (AVEFA) Pre-Emergence Activity”
as §2

[7] = system: Echinochloa crus-galli (ECHCG); assay: as above; conditions: 312 h, rate 250 g/ha, evaluated after 13 days, read-out: Post-emergence activity, ECHCG (100=total damage to plant; 0=no damage to plant)
Method: as §1, with “plant).” for “plant). Test plants: Setaria faberi (SETFA), Lolium perenne (LOLPE), Alopecurus myosuroides (ALOMY), Echinochloa crus-galli (ECHCG), and Avena fatua (AVEFA) Pre-Emergence Activity”
as §2

Lolium perenne (LOLPE) [8] = assay: as above; conditions: 312 h, rate 250 g/ha, evaluated after 13 days, read-out: Post-emergence activity, LOLPE (100=total damage to plant; 0=no damage to plant)
Method: as §1, with “plant).” for “plant). Test plants: Setaria faberi (SETFA), Lolium perenne (LOLPE), Alopecurus myosuroides (ALOMY), Echinochloa crus-galli (ECHCG), and Avena fatua (AVEFA) Pre-Emergence Activity”
as §2

Row | Structure (SMILES) | pest or weed control at 250 g/ha (Avena fatua (AVEFA) [1]) | pest or weed control at 250 g/ha [2] | pest or weed control at 250 g/ha [3] | pest or weed control at 250 g/ha (Lolium perenne (LOLPE) [4]) | pest or weed control at 250 g/ha (Avena fatua (AVEFA) [5]) | pest or weed control at 250 g/ha [6] | pest or weed control at 250 g/ha [7] | pest or weed control at 250 g/ha (Lolium perenne (LOLPE) [8])
1 | CCc1ccc(-c2ccc(Cl)c(F)c2F)cc1C1=C(O)CCC1=O [Compound T-12] | 30% | 40% | 50% | 50% | 50% | 50% | 90% | 50%
2 | CCc1ccc(-c2ccc(Cl)c(OC)c2)cc1C1=C(O)CCC1=O [Compound T-6] | 0% | 0% | 60% | 30% | 10% | 50% | 90% | 60%
3 | CCc1ccc(-c2ccc(Cl)c(C(F)(F)F)c2)cc1C1=C(O)CCC1=O [Compound T-8] | 0% | 30% | 60% | 60% | 30% | 50% | 100% | 60%
4 | CCc1ccc(-c2ccc(Cl)cc2F)cc1C1=C(O)CCC1=O [Compound T-3, 2-(4′-chloro-4-ethyl-2′-fluorobiphenyl-3-yl)cyclopentane-1,3-dione] | 60% | 30% | 100% | 90% | 90% | 30% | 100% | 40%
5 | CCc1ccc(-c2ccc(Cl)cc2Cl)cc1C1=C(O)CCC1=O [Compound T-14] | 0% | 10% | 50% | 30% | 30% | 30% | 70% | 30%
6 | CCc1ccc(-c2c(F)cc(Cl)cc2F)cc1C1=C(O)CCC1=O [Compound T-10] | 0% | 0% | 0% | 0% | 50% | 30% | 90% | 40%
7 | CCc1ccc(-c2ccc(C(F)(F)F)cc2)cc1C1=C(O)CCC1=O [Compound T-18] | 30% | 50% | 50% | 30% | 90% | 80% | 100% | 70%
8 | O=C1CCC(O)=C1c1cc(-c2ccc(Cl)cc2Cl)ccc1C1CC1 [Compound T-24, 2-(2′,4′-dichloro-4-cyclopropylbiphenyl-3-yl)-cyclopentane-1,3-dione] | 0% | 0% | 80% | 50% | 10% | 30% | 100% | 50%
9 | CCc1ccc(-c2ccc(F)cc2)cc1C1=C(O)CCC1=O [Compound T-17] | 0% | 40% | 80% | 60% | 40% | 50% | 70% | 50%
10 | CCc1ccc(-c2cc(F)c(Cl)c(F)c2)cc1C1=C(O)CCC1=O [Compound T-21] | 10% | 40% | 40% | 100% | 20% | 30% | 40% | 30%
11 | CCc1ccc(-c2cc(Cl)c(Cl)cc2Cl)cc1C1=C(O)CCC1=O [Compound T-16] | 0% | 0% | 50% | 20% | 80% | 50% | 80% | 60%
12 | CCc1ccc(-c2ccc(Cl)c(C(F)(F)F)c2F)cc1C1=C(O)CCC1=O [Compound T-19] | 0% | 0% | 10% | 20% | 20% | 60% | 70% | 60%
13 | CCc1ccc(-c2ccc(Cl)c(F)c2)cc1C1=C(O)CCC1=O [Compound T-9] | 50% | 60% | 90% | 80% | 60% | 30% | 100% | 60%
14 | CCc1ccc(-c2ccc3ccccc3c2)cc1C1=C(O)CCC1=O [Compound T-7] | 0% | 0% | 20% | 10% | 10% | 10% | 20% | 30%
15 | CCc1ccc(-c2ccc(Cl)c(Cl)c2Cl)cc1C1=C(O)CCC1=O [Compound T-20] | 0% | 0% | 30% | 10% | 10% | 20% | 70% | 20%
16 | CCc1ccc(-c2ccc(Cl)c(Cl)c2F)cc1C1=C(O)CCC1=O [Compound T-13] | 0% | 0% | 0% | 0% | 0% | 10% | 60% | 40%
17 | CCc1ccc(-c2ccc(Cl)c(F)c2Cl)cc1C1=C(O)CCC1=O [Compound T-11] | 10% | 20% | 50% | 30% | 30% | 60% | 90% | 50%
18 | CCc1ccc(-c2ccc(Cl)cc2)cc1C1=C(O)C2CSCC2C1=O (centres unmarked) [Compound T-2, 5-(4′-Chloro-4-ethylbiphenyl-3-yl)-tetrahydrocyclopenta[c]thiophene-4,6-dione] | 0% | 0% | 70% | 0% | 80% | 20% | 100% | 0%
19 | CCc1ccc(-c2ccc(Cl)cc2)cc1C1=C(O)CCC1=O [Compound T-1, 2-(4′-chloro-4-ethylbiphen-3-yl)-1,3-cyclopentanedione] | 70% | 90% | 100% | – | 90% | 80% | 100% | –
20 | CCc1ccc(-c2ccc(Cl)c(C)c2)cc1C1=C(O)CCC1=O [Compound T-15] | 0% | 0% | 0% | 0% | 0% | 10% | 30% | 30%
